Test results taken from patent US5527703A (Merck & Co., Inc., priority 1994, dated 1996).
Entries after “also recorded” stand apart in the source; their conditions may differ.

What was measured:
GluCl α&β [1] = target: T1, GluCl α&β (Caenorhabditis elegans, UniProt G5EBR3+Q17328); assay: 3H-ivermectin equilibrium binding to GluCl α&β RNA injected oocytes; design: species or system C. elegans; conditions: read-out: affinity of 3H-ivermectin binding; oocytes expressing GluCl α&β
T1 construct: the full-length open reading frame of the GluCl cDNA encoding the GluClα (52,550 kDa) and GluClβ (49,900kDa) subunits; expressed in transfected cells; host or cells: Xenopus laevis oocytes injected with in vitro RNA
T1 sequence (G5EBR3 21-461): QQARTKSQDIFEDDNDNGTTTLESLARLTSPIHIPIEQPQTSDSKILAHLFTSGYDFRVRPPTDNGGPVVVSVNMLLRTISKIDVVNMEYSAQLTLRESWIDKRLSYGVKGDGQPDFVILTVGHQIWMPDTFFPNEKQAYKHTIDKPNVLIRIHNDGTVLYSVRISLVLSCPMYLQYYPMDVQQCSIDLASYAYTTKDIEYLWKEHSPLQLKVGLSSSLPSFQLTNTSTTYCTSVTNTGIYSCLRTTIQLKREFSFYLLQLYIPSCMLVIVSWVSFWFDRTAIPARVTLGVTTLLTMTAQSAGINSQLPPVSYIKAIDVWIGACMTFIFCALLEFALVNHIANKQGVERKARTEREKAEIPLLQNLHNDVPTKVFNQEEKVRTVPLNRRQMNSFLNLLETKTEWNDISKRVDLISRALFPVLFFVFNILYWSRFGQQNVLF
T1 sequence (Q17328 23-434): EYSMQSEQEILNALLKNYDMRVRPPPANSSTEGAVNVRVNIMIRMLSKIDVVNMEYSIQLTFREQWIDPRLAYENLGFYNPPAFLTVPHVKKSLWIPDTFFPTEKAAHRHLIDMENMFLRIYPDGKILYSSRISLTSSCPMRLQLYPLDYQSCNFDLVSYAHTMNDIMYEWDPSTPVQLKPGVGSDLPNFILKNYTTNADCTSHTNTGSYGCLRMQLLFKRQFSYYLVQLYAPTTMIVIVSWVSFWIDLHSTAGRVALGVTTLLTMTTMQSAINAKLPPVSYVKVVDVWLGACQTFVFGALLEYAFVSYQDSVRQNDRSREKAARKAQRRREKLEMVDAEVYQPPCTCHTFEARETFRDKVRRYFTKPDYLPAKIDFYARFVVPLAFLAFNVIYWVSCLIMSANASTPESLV
Method: (§1) Oocytes injected with GluClα and GluClβ in vitro RNA were used in ^3 H-ivermectin and ^3 H-glutamate binding assays. GluClα (1 ng) or GluClβ RNA (1 ng) were injected into oocytes individually, or coinjected (0.5 ng each) and 2 days later the oocytes were disrupted with a dounce homogenizer and yolk proteins removed using standard methods known in the art. Equilibrium ligand binding assays were performed using conventional procedures. […] Oocytes expressing GluCl α&β are used to measure the affinity of binding of othere compounds and their ability to displace ^3 H-ivermectin and ^3 H-glutamate binding.

GluClα [2] = target: T2, GluClα (Caenorhabditis elegans, UniProt G5EBR3); assay: 3H-ivermectin equilibrium binding to GluClα RNA injected oocytes; design: the full-length open reading frame of the GluCl cDNA encoding the GluClα (52,550 kDa) and GluClβ (49,900kDa) subunits; expressed in transfected cells; host or cells: Xenopus laevis oocytes injected with in vitro RNA; species or system C. elegans; conditions: read-out: affinity of 3H-ivermectin binding; oocytes expressing GluClα
T2 sequence (G5EBR3 21-461): T1 sequence (G5EBR3 21-461)
Method: as §1

GluCl α&β [3] = target: T1, GluCl α&β; assay: Antagonist block of ligand-activated current in oocytes injected with GluClα and GluClβ RNA; type: cell-based, C. elegans; conditions: for inhibition at 100 µM: read-out: % Block; for % Block: blocker 100 μM
Method: (§2) Xenopus laevis oocytes were prepared and injected using standard methods previously described and known in the art [Arena, J. P., Liu. K. K., Paress, P. S. & Cully. D. F. Mol. Pharmacol. 40, 368-374 (1991 ); Arena, J. P., Liu, K. K., Paress, P. S., Schaeffer, J. M. & Cully, D. F. Mol. Brain Res. 15, 339-348 (1992)]. Adult female Xenopus laevis were anesthetized with 0.17% tricaine methanesulfonate and the ovaries were surgically removed and placed in a dish consisting of (mM): NaCl 1 82.5, KCl 2. MgCl2 1, CaCl2 1.8, HEPES 5 adjusted to pH 7.5 with NaOH (OR-2). Ovarian lobes were broken open, rinsed several times, and gently shaken in OR-2 containing 0.2% collagenase (Sigma, Type 1A) for 2-5 hours. When approximately 50% of the follicular layers were removed, Stage V and VI oocytes were selected and placed in media consisting of (mM): NaCl 86, KCl 2, MgCl2 1, CaCl2 1.8, HEPES 5, Na pyruvate 2.5, theophylline 0.5, gentamicin 0.1 adjusted to pH 7.5 with NaOH (ND-96) for 24-48 hours before injection. Oocytes were injected with 50-70 nl of poly(A^+) RNA (1 mg/ml) or 50 nl of GluClα (0.1-100 ng) and/or GluClβ (0.1-100 ng). Control oocytes were injected with 50 nl of water. Oocytes were incubated for 2-10 days in ND-96 before recording. Incubations and collagenase digestion were carried out at 18° C.
(§3) Recordings were made at room temperature 2-10 days after injection. Unless otherwise indicated recordings were made in standard frog saline consisting of (mM): NaCl 115, KCl 2, MgCl2 1, CaCl2 1.8, HEPES 10 adjusted to pH 7.5 with NaOH. Oocytes were voltage-clamped using a standard two microelectrode amplifier (Dagan 8500 or TEV-200, Minneapolis,Minn.). Pipettes were filled with 3M KCl and had resistances between 0.5-3.0 M.OMEGA.. A plexiglass recording chamber (volume 200 μl) was constantly perfused at a rate of 10 ml/min. The recording chamber was connected to ground with a Ag/AgCl electrode directly, or through a 3M KCl agar bridge when extracellular chloride was varied. For low chloride solutions NaCl was replaced with equimolar concentrations of sodium isethionic acid. For low sodium solutions NaCl was replaced with equimolar KCl or choline Cl. Data were acquired and analyzed using PCLAMP with a TL-1 interface (Axon Instruments, Foster City, Calif.). Membrane current at a holding potential of -80 mV was recorded. The amplitude of drug-sensitive current was determined by subtracting the holding current at -80 mV from the peak current obtained in the presence of drug. Data were filtered at 30 Hz and sampled at 16.6 Hz. Current/voltage relationships (I/V) and reversal potentials (Erev) were determined using a 1-3 sec voltage ramp over the voltage range of -110 to +80 mV. For the ramps, data were filtered at 0.3-3 kHz and sampled at 160 Hz. Current in drug free solution was subtracted from current in the presence of drug to obtain drug-sensitive current/voltage relationships.
Oocytes were injected simultaneously with GluClα and GluClβ RNA
(25 pg each). n=at least four for each group. a- Data are expressed as %
acid. e- Block was considered zero if response in the presence of blocker
was ± 3% of control. f- (-)-Bicuculline methochloride g.

arthropod H-receptors = conditions: cited from earlier work
[4] = tested on: glutamate- and avermectin-sensitive chloride channel (C. elegans poly(A)+ RNA); conditions: cited from earlier work
GluClα [5] = target: T2, GluClα; assay: 3H-glutamate equilibrium binding to GluClα injected oocyte membranes; design: the full-length open reading frame of the GluCl cDNA encoding the GluClα (52,550 kDa) and GluClβ (49,900kDa) subunits; expressed in transfected cells; host or cells: Xenopus laevis oocytes injected with in vitro RNA; species or system C. elegans; conditions: membrane preparations from GluClα-injected oocytes
Method: as §1

GluClα [6] = target: T2, GluClα; assay: Permeability (reversal potential) of GluClα channels in oocytes; type: cell-based, C. elegans; design: homomeric channel; voltage clamp reversal potentials; conditions: Erev in Na isothionate
Method: Xenopus laevis oocytes were prepared and injected using standard methods previously described and known in the art [Arena, J. P., Liu. K. K., Paress, P. S. & Cully. D. F. Mol. Pharmacol. 40, 368-374 (1991 ); Arena, J. P., Liu, K. K., Paress, P. S., Schaeffer, J. M. & Cully, D. F. Mol. Brain Res. 15, 339-348 (1992)]. Adult female Xenopus laevis were anesthetized with 0.17% tricaine methanesulfonate and the ovaries were surgically removed and placed in a dish consisting of (mM): NaCl 1 82.5, KCl 2. MgCl2 1, CaCl2 1.8, HEPES 5 adjusted to pH 7.5 with NaOH (OR-2). Ovarian lobes were broken open, rinsed several times, and gently shaken in OR-2 containing 0.2% collagenase (Sigma, Type 1A) for 2-5 hours. […]
Recordings were made at room temperature 2-10 days after injection. […] Data were acquired and analyzed using PCLAMP with a TL-1 interface (Axon Instruments, Foster City, Calif.). Membrane current at a holding potential of -80 mV was recorded. The amplitude of drug-sensitive current was determined by subtracting the holding current at -80 mV from the peak current obtained in the presence of drug. […] Current/voltage relationships (I/V) and reversal potentials (Erev) were determined using a 1-3 sec voltage ramp over the voltage range of -110 to +80 mV. […]

GluClα [7] = target: T2, GluClα; assay: Activation of current in Xenopus oocytes expressing homomeric GluClα (voltage clamp); type: cell-based, C. elegans; design: the full-length open reading frame of the GluCl cDNA encoding the GluClα (52,550 kDa) and GluClβ (49,900kDa) subunits; expressed in transfected cells; host or cells: Xenopus laevis oocytes injected with in vitro RNA
Method: as §2, §3
(§4) Electrophysiological properties were examined in oocytes injected with in vitro RNA from pGluClα and pGluClβ (FIG. 5).

GluCl α&β [8] = target: T1, GluCl α&β; assay: Agonist activation of current in Xenopus oocytes injected with GluClα and GluClβ RNA (two-microelectrode voltage clamp); type: cell-based, C. elegans
Method: as §2, §3, §4
Several ligand-gated ion channel agonists and antagonists were tested on oocytes injected with GluCl α&β (Table 1). […] 255, 449-464 (1976); Arena, J. P., Liu, K. K., Paress, P. S., Schaeffer, J. M. & Cully, D. F. Mol. Brain Res. 15, 339-348 (1992); Lea, T. J. & Usherwood, P. N. R. Comp. Gen. Pharmacol. 4, 351-363 (1973)].

GluClβ = target: T3, GluClβ (Caenorhabditis elegans, UniProt Q17328); assay: Activation of current in Xenopus oocytes expressing homomeric GluClβ (voltage clamp); type: cell-based, C. elegans
T3 construct: the full-length open reading frame of the GluCl cDNA encoding the GluClα (52,550 kDa) and GluClβ (49,900kDa) subunits; expressed in transfected cells; host or cells: Xenopus laevis oocytes injected with in vitro RNA
T3 sequence (Q17328 23-434): T1 sequence (Q17328 23-434)
Method: as §2, §3, §4

## CC[C@H](C)[C@H]1O[C@]2(CC[C@@H]1C)C[C@@H]1C[C@@H](C/C=C(\C)[C@@H](O[C@H]3C[C@H](OC)[C@@H](O[C@H]4C[C@H](OC)[C@@H](O)[C@H](C)O4)[C@H](C)O3)[C@@H](C)/C=C/C=C3\CO[C@@H]4[C@H](O)C(C)=C[C@@H](C(=O)O1)[C@]34O)O2 [^3 H-ivermectin, 22,23-dihydroavermectin B1a]
GluCl α&β [1]
  Kd: ~0.2 nM
GluClα [2]
  Kd: ~0.2 nM

## N#Cc1cc2[nH]c(=O)c(=O)[nH]c2cc1[N+](=O)[O-] [CNQX, 6-cyano-7-nitroquino-xaline-2,3-dione]
GluCl α&β [3]
  inhibition at 10 µM: 0%

## C[N+]1(C)CCc2cc3c(cc2C1C1OC(=O)c2c1ccc1c2OCO1)OCO3 (single isomer, unassigned; (-)) [Bicuculline, (-)-Bicuculline methochloride]
GluCl α&β [3]
  inhibition at 100 µM: 0%

## Picrotoxin
Arthropod H-receptors
  effect on arthropod H-receptors: blocked with low affinity
GluCl α&β [3]
  block of glutamate- and IVMPO4-sensitive currents: blocked; also recorded: low affinity block
GluCl α&β [3]; ligand IVMPO4 1 μM
  % Block: 61 ± 2%
GluCl α&β [3]; ligand glutamate 1 mM, zero if within ± 3% of control
  % Block: 68 ± 4%
[4]
  effect on glutamate- and avermectin-sensitive current: blocked with low affinity

## ^3 H-glutamate
GluClα [5]
  Specific 3H-glutamate binding: observed

## O=C(O)c1ccccc1Nc1cccc(C(F)(F)F)c1 [Flufenamic Acid]
GluCl α&β [3]
  block of glutamate- and IVMPO4-sensitive currents: blocked; also recorded: low affinity block
GluCl α&β [3]; blocker 200 μM, ligand IVMPO4 1 μM
  inhibition at 200 µM: 60 ± 4%

## O=S(=O)(O)CCO [isothionate]
GluClα [6]
  permeability ratio to chloride: 0.2

## NCCCC(=O)O [GABA]
GluClα [7]
  sensitivity of GluClα homomeric channels: insensitive
GluCl α&β [8]
  activation of current / sensitivity of coexpressed GluCl α&β: insensitivity
Arthropod H-receptors
  effect on arthropod H-receptors: not activated
GluClβ
  sensitivity of GluClβ homomeric channels: insensitive

## O=C1C[C@@H]2OCC=C3CN4CC[C@]56c7ccccc7N1[C@H]5[C@H]2[C@H]3C[C@H]46 [Strychnine]
GluCl α&β [3]
  inhibition at 100 µM: 0%

## NCC(=O)O [Glycine]
GluClα [7]
  sensitivity of GluClα homomeric channels: insensitive
GluCl α&β [8]
  activation of current / sensitivity of coexpressed GluCl α&β: insensitivity
GluClβ
  sensitivity of GluClβ homomeric channels: insensitive

## NC(C(=O)O)c1cc(=O)[nH]o1 (stereo not shown) [Ibotenate]
GluCl α&β [8]
  activation of current / sensitivity of coexpressed GluCl α&β: direct activation of current
GluCl α&β [8]; read-out: % of Glutamate 10 mM
  Emax at 500 µM: 18 ± 2%
Arthropod H-receptors
  effect on arthropod H-receptors: activated
[4]
  effect on glutamate- and avermectin-sensitive current: activated
